In EP0548370A1, “DRUG FOR PREVENTING AND/OR TREATING ALLERGIC DISEASE” (MOCHIDA PHARMACEUTICAL CO., LTD., priority 1991, dated 1993):

How the values were obtained:
rat experimental asthma = experiment: Rat experimental asthma, airway resistance by over flow technique; format: in vivo, Wister line male rats
Method: That is, 2 x 10¹⁰ cells of inactivated Bordetella pertussis and 1 mg of ovalbumin were respectively administered intraperitoneally and intramuscularly to 5 individuals per group of Wister line male rats (body weight, 194 - 210 g) to effect sensitization. Immediately after the sensitization, a 5% acacia aqueous solution containing a varied concentration of tofisopam or a 5% acacia aqueous solution containing no tofisopam (control) was administered orally once a day, 14 times in total.
After 14 days of the sensitization, ovalbumin was administered to the sensitized rats intravenously at a dose of 0.5 mg/kg, and the increasing degree of airway resistance was measured by means of the over flow technique (Arch. Exp. Pathol. Pharmak., vol.195, pp.71 - 74, 1974). The thus obtained inhibition rate of airway contraction, when the result of the control test is defined as 100, is shown in Table 4.

bronchial asthma = settings: 16 cases of bronchial asthma patients; cited from earlier work
[1] = in vivo; cited from earlier work
IgM antibodies = experiment: Effect on IgM antibody production in ovalbumin-sensitized mice (ELISA); format: in vivo, BALB/c line male mice; settings: for IgM antibody yield (% control): 7 times, blood 14 days after sensitization
Method: (§1) That is, 4 mg of aluminum hydroxide to which 10 µg of ovalbumin has been adsorbed was intraperitoneally administered to 5 individuals per group of BALB/c line male mice (body weight, 21 - 25 g) to effect sensitization. Immediately after the sensitization, a 5% acacia aqueous solution containing a varied concentration of tofisopam or a 5% acacia aqueous solution containing no tofisopam (control) was administered orally once a day, 7 times in total. After 14 days of the sensitization, blood samples were collected to measure produced amounts of various types of immunoglobulin by means of enzyme-linked immunosorbent assay (ELISA). Production yields of IgG₁ and IgM antibodies were measured in the following manner. That is, a blood plasma sample was added to immobilized anti-mouse IgG₁ or IgM antibodies to allow IgG₁ antibodies or IgM antibodies to be linked, followed by the reaction with horseradish peroxidase-labeled anti-mouse IgG₁ antibodies or horseradish peroxidase-labeled anti-mouse IgM antibodies, and then the amount of produced IgG₁ or IgM antibodies was measured based on the horseradish peroxidase activity as a marker.

IgE antibodies = experiment: Effect on IgE antibody production in ovalbumin-sensitized mice (ELISA); format: in vivo, BALB/c line male mice; settings: for IgE antibody yield (% control): 7 times, blood 14 days after sensitization
Method: That is, 4 mg of aluminum hydroxide to which 10 μg of ovalbumin has been adsorbed was intraperitoneally administered to 5 individuals per group of BALB/c line male mice (body weight, 21 - 25 g) to effect sensitization. Immediately after the sensitization, a 5% acacia aqueous solution containing a varied concentration of tofisopam or a 5% acacia aqueous solution containing no tofisopam (control) was administered orally once a day, 7 times in total. After 14 days of the sensitization, blood samples were collected to measure produced amounts of various types of immunoglobulin by means of enzyme-linked immunosorbent assay (ELISA). Production yield of IgE antibodies was measured in the following manner. That is, a blood plasma sample was added to immobilized anti-mouse IgE antibodies to allow IgE to be linked, followed by the reaction with biotin-labeled anti-mouse IgE antibodies and avidin-labeled horseradish peroxidase, and then the amount of produced IgE antibodies was measured based on the horseradish peroxidase activity as a marker (Men'eki-to-[…], vol.15, pp.211 - 216, 1988).

[2] = test system: psychogenic bronchial asthma; settings: of 26 cases; with simultaneous β₂ stimulant and theophylline preparation; cited from earlier work
IgG₁ antibodies = experiment: Effect on IgG₁ antibody production in ovalbumin-sensitized mice (ELISA); format: in vivo, BALB/c line male mice; settings: for IgG₁ antibody yield (% control): 7 times, blood 14 days after sensitization
Method: as §1

chronic urticaria [3] = settings: of 2 cases; cited from earlier work
chronic urticaria [4] = settings: of 14 cases; with antihistaminic drug, Chinese orthodox medicine and the like; cited from earlier work
[5] = 100 mg/kg/day orally once a day
[6] = 300 mg/kg/day orally once a day
[7] = 100 or 300 mg/kg/day orally for 7 days

CCC1C(C)=NN=C(c2ccc(OC)c(OC)c2)c2cc(OC)c(OC)cc21 (stereo not drawn) [Tofisopam, 1-(3,4-dimethoxyphenyl)-5-ethyl-7,8-dimethoxy-4-methyl-5H-2,3-benzodiazepine]
airway reaction (rat experimental asthma; 100 mg/kg/day orally for 14 days): can inhibit the airway reaction
Inhibition rate (%) of airway contraction (rat experimental asthma; 100 mg/kg/day orally once a day, 14 times, ovalbumin 0.5 mg/kg intravenously 14 days after sensitization): 27%
efficacy in objective findings (bronchial asthma): 25%
efficacy in subjective symptoms (bronchial asthma): 50%
acute, subacute and chronic toxicities [1]: confirmed safety of the compound
IgM antibody yield (% control) (IgM antibodies; [5]): 97 % control
IgM antibody yield (% control) (IgM antibodies; [6]): 87 % control
influence upon the production of IgM antibodies (IgM antibodies; [7]): hardly exerts influence
IgE antibody yield (% control) (IgE antibodies; [5]): 66 % control
IgE antibody yield (% control) (IgE antibodies; [6]): 56 % control
inhibition at 100 mg/kg (IgE antibodies; Mus musculus, po, 168 h, 100 mg/kg/day orally for 7 days): ~34%
inhibition at 300 mg/kg (IgE antibodies; Mus musculus, po, 168 h, 300 mg/kg/day orally for 7 days): ~44%
cases improved [2]: one
IgG₁ antibody yield (% control) (IgG₁ antibodies; [5]): 113 % control
IgG₁ antibody yield (% control) (IgG₁ antibodies; [6]): 111 % control
influence upon the production of IgG₁ antibodies (IgG₁ antibodies; [7]): hardly exerts influence
cases improved significantly (chronic urticaria [3]): 1
cases improved (chronic urticaria [4]): 8
